# Laboratory results reported in ChEMBL document CHEMBL2034861, “Tyrosyl-DNA phosphodiesterase 1 inhibitor from an anamorphic fungus” (J Nat Prod, 2012).
# Tests used:
# Mus musculus [1] = test: Toxicity in nude mouse KSN assessed as weight loss at 2 mg/kg, ip qd administered every other day for 19 days measured on day 21 relative to vehicle treated control; format: organism-based; design: dose 2 mg/kg, route intraperitoneal; details: in vivo, 456 h
# Mus musculus [2] = test: Toxicity in nude mouse KSN assessed as adverse effects at 2 mg/kg, ip qd administered every other day for 19 days measured on day 21 relative to vehicle treated control; format: organism-based; design: dose 2 mg/kg, route intraperitoneal; details: in vivo, 456 h
# NCI-H2052 = test: Antiproliferative activity against human NCI-H2052 cells after 48 hrs by WST-8 assay; format: functional, cell-based; details: NCI-H2052, 48 h
# HT-29 [3] = test: Antiproliferative activity against human HT-29 cells after 48 hrs by WST-8 assay; format: functional, cell-based; details: HT-29, 48 h
# HT-29 [4] = test: Antitumor activity against human HT-29 cells xenografted in nude mouse KSN assessed as reduction in tumor volume at 2 mg/kg, ip qd administered every other day from day 7 post-tumor injection for 19 days measured on day 21 relative to vehicle treated control; format: functional; details: route intraperitoneal
# HeLa = test: Antiproliferative activity against human HeLa cells after 48 hrs by WST-8 assay; format: functional, cell-based
# [5] = biological target: Tyrosyl-DNA phosphodiesterase 1 (Homo sapiens, UniProt Q9NUW8); test: Inhibition of human Tdp1 using 3'-phosphate-(4-methylumbelliferone)-thymidine as substrate after 180 mins by spectrophotometry
# Chain of Tyrosyl-DNA phosphodiesterase 1 (Q9NUW8 whole entry): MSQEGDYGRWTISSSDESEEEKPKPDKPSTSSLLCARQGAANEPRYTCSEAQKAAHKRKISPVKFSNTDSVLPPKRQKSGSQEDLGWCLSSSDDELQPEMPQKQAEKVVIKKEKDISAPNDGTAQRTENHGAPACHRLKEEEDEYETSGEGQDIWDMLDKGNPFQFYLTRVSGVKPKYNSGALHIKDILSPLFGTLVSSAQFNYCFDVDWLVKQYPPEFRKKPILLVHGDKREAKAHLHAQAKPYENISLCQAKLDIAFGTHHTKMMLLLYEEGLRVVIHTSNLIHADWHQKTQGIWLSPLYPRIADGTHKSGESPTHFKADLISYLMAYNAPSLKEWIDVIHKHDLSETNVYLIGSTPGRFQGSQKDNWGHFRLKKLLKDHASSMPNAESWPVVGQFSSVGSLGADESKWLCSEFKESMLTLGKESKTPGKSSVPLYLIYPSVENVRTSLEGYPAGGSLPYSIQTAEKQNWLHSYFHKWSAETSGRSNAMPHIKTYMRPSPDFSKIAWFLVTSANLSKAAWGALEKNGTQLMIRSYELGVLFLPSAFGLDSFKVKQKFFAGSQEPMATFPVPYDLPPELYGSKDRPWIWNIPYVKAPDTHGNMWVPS
# [6] = Antiproliferative activity against human NAMALWA cells after 48 hrs by WST-8 assay; format: functional, cell-based; details: NAMALVA
smiles,measurement,setting,value
CCCCC(C)C1=CC(=O)C2=C(O[C@]3(C)CC[C@H]4O[C@@H]([C@@](C)(O)C(=O)O)CC[C@]4(C)[C@H]3C2)C1=O (stereo partly drawn),Activity,Mus musculus [1],Non-toxic
same,Activity,Mus musculus [2],Non-toxic
same,IC50,NCI-H2052,13 µM
same,IC50,HT-29 [3],4 µM
same,T/C,HT-29 [4],0.51
same,IC50,HeLa,9.2 µM
same,IC50,[5],18 µM
same,IC50,[6],3.5 µM
